Measured values published in patent US8192962B2, “Processes for detecting toxic substances” (Daikin Industries, Ltd., priority 2001, dated 2012).

Test system: Metabolism protein genes
Assay: DNA chip mRNA expression in yeast, metabolism protein genes (Table 7)
Format: cell-based, Saccharomyces cerevisiae S288C
Experimental: Yeast (Saccharomyces cerevisiae S288C (α SUC2mal mel gap2 CUP1)) were incubated at 25° C. on YPD medium (yeast extract 1%, polypepton 2%, glucose 2%). One of toxic chemical substances was added to the cells at logarithmic growth phase, and the cells were further incubated for two hours. Cells were cultured without any chemical substance in the same condition, and were used as control. Concentrations of the chemical substances were defined to inhibit the growth of the yeast but not lead to death.
After completion of the incubation, the culture was centrifuged to collect the cells. To the cells, sodium acetate buffer (50 mM sodium acetate, 10 mM EDTA, 1% SDS) was added, and the mixture was shaken at 65° C. for five minutes, followed by returning to room temperature, and obtaining the supernatant, of which the procedures were repeated two times. To the supernatant, ½ amount of a solution of phenol/chloroform was added, and the mixture was centrifuged to give a supernatant, which was added with an equal amount of chloroform, and the mixture was centrifuged to give a supernatant. To the supernatant, an equal amount of isopropanol containing 0.3 M sodium acetate was added, and the mixture was allowed to stand at room temperature for 30 minutes, after which the mixture was centrifuged to give a sediment of the whole RNAs. Seventy % ethanol was added to the sediment, and the mixture was again centrifuged to give a sediment, which was then dried and dissolved in water. mRNA was isolated from the whole RNAs as followings. In view of the fact that a poly A chain is attached to the 3′ terminus of mRNA, a polynucleotide having a poly T structure which was immobilized on the surface of latex beads was used to trap the mRNA, and then the mRNA was washed and eluted with spine column (Oligotex-dT30<Super>mRNA Purification Kit, Takara). Reverse transcription of the mRNA was conducted with a reverse transcriptase (Super Script II Reverse Transcriptase; catalogue No. 18064-014, GibcoBRL) using fluorescence-labeled nucleotides to give cDNAs that were introduced with Cy3-dUTP or Cy5-dUTP during the reverse transcription.
The labeled cDNAs were dissolved in TE buffer (10mM Tris-HCl/1 mM EDTA, pH8.0), and the solution was dropped on the DNA chip containing the whole genes of yeast (DNA Chip Research Inc. Japan) so that the cDNAs were hybridized on the DNA chip at 65° C. for over 12 hours. The fluoresces intensity of the DNA chip was read with a scanner, and the ratio relative to the fluorescence intensity resulting from the absence of chemical substance was estimated as the following, which is shown in Tables 1 to 9: […]

CCCCCCCCCCCCOS(=O)(=O)[O-].[Na+] [(18), sodium lauryl sulfate]
4.0: The level of expressed mRNA in the presence of chemical substance/The level of expressed mRNA in the absence of chemical substance (yeast gene YDL174C)
3.2: The level of expressed mRNA in the presence of chemical substance/The level of expressed mRNA in the absence of chemical substance (yeast gene YER026C)
1.8: level of expressed mRNA in the presence/in the absence of chemical substance (yeast gene YDR345C) | The level of expressed mRNA in the presence of chemical substance/The level of expressed mRNA in the absence of chemical substance (yeast gene YDR497C) | The level of expressed mRNA in the presence of chemical substance/The level of expressed mRNA in the absence of chemical substance (yeast gene YIL045W) | The level of expressed mRNA in the presence of chemical substance/The level of expressed mRNA in the absence of chemical substance (yeast gene YJL172W)
8.8: The level of expressed mRNA in the presence of chemical substance/The level of expressed mRNA in the absence of chemical substance (yeast gene YFL014W)
2.0: The level of expressed mRNA in the presence of chemical substance/The level of expressed mRNA in the absence of chemical substance (yeast gene YGR037C) | The level of expressed mRNA in the presence of chemical substance/The level of expressed mRNA in the absence of chemical substance (yeast gene YGR194C) | The level of expressed mRNA in the presence of chemical substance/The level of expressed mRNA in the absence of chemical substance (yeast gene YIL107C) | level of expressed mRNA in the presence/in the absence of chemical substance (yeast gene YJL216C)
0.9: level of expressed mRNA in the presence/in the absence of chemical substance (yeast gene YBR020W) | The level of expressed mRNA in the presence of chemical substance/The level of expressed mRNA in the absence of chemical substance (yeast gene YBR023C) | The level of expressed mRNA in the presence of chemical substance/The level of expressed mRNA in the absence of chemical substance (yeast gene YBR222C) | The level of expressed mRNA in the presence of chemical substance/The level of expressed mRNA in the absence of chemical substance (yeast gene YDR502C) | The level of expressed mRNA in the presence of chemical substance/The level of expressed mRNA in the absence of chemical substance (yeast gene YER069W) | The level of expressed mRNA in the presence of chemical substance/The level of expressed mRNA in the absence of chemical substance (yeast gene YER178W) | The level of expressed mRNA in the presence of chemical substance/The level of expressed mRNA in the absence of chemical substance (yeast gene YGL126W) | level of expressed mRNA in the presence/in the absence of chemical substance (yeast gene YIL006W) | The level of expressed mRNA in the presence of chemical substance/The level of expressed mRNA in the absence of chemical substance (yeast gene YJL088W)
2.6: level of expressed mRNA in the presence/in the absence of chemical substance (yeast gene YER015W)
9.1: level of expressed mRNA in the presence/in the absence of chemical substance (yeast gene YGL205W)
3.3: The level of expressed mRNA in the presence of chemical substance/The level of expressed mRNA in the absence of chemical substance (yeast gene YBR256C)
3.1: The level of expressed mRNA in the presence of chemical substance/The level of expressed mRNA in the absence of chemical substance (yeast gene YJL155C)
0.6: level of expressed mRNA in the presence/in the absence of chemical substance (yeast gene YHR025W)
0.3: The level of expressed mRNA in the presence of chemical substance/The level of expressed mRNA in the absence of chemical substance (yeast gene YCL064C)
2.3: level of expressed mRNA in the presence/in the absence of chemical substance (yeast gene YDR050C) | level of expressed mRNA in the presence/in the absence of chemical substance (yeast gene YDR073W) | level of expressed mRNA in the presence/in the absence of chemical substance (yeast gene YDR178W) | The level of expressed mRNA in the presence of chemical substance/The level of expressed mRNA in the absence of chemical substance (yeast gene YER053C)
1.7: level of expressed mRNA in the presence/in the absence of chemical substance (yeast gene YDR277C) | level of expressed mRNA in the presence/in the absence of chemical substance (yeast gene YER081W) | The level of expressed mRNA in the presence of chemical substance/The level of expressed mRNA in the absence of chemical substance (yeast gene YJR148W)
1.1: level of expressed mRNA in the presence/in the absence of chemical substance (yeast gene YBR011C) | level of expressed mRNA in the presence/in the absence of chemical substance (yeast gene YDR408C) | The level of expressed mRNA in the presence of chemical substance/The level of expressed mRNA in the absence of chemical substance (yeast gene YFL031W) | The level of expressed mRNA in the presence of chemical substance/The level of expressed mRNA in the absence of chemical substance (yeast gene YFL056C) | level of expressed mRNA in the presence/in the absence of chemical substance (yeast gene YGL012W)
1.5: level of expressed mRNA in the presence/in the absence of chemical substance (yeast gene YCR010C) | level of expressed mRNA in the presence/in the absence of chemical substance (yeast gene YDR284C) | The level of expressed mRNA in the presence of chemical substance/The level of expressed mRNA in the absence of chemical substance (yeast gene YGL209W) | The level of expressed mRNA in the presence of chemical substance/The level of expressed mRNA in the absence of chemical substance (yeast gene YGR282C) | The level of expressed mRNA in the presence of chemical substance/The level of expressed mRNA in the absence of chemical substance (yeast gene YJL068C)
1.0: The level of expressed mRNA in the presence of chemical substance/The level of expressed mRNA in the absence of chemical substance (yeast gene YAL038W) | level of expressed mRNA in the presence/in the absence of chemical substance (yeast gene YDR123C) | level of expressed mRNA in the presence/in the absence of chemical substance (yeast gene YER120W) | level of expressed mRNA in the presence/in the absence of chemical substance (yeast gene YFL011W) | level of expressed mRNA in the presence/in the absence of chemical substance (yeast gene YGR096W) | level of expressed mRNA in the presence/in the absence of chemical substance (yeast gene YHR123W) | The level of expressed mRNA in the presence of chemical substance/The level of expressed mRNA in the absence of chemical substance (yeast gene YIL154C) | The level of expressed mRNA in the presence of chemical substance/The level of expressed mRNA in the absence of chemical substance (yeast gene YIR034C) | level of expressed mRNA in the presence/in the absence of chemical substance (yeast gene YJL121C)
0.7: level of expressed mRNA in the presence/in the absence of chemical substance (yeast gene YCR034W) | level of expressed mRNA in the presence/in the absence of chemical substance (yeast gene YEL063C) | The level of expressed mRNA in the presence of chemical substance/The level of expressed mRNA in the absence of chemical substance (yeast gene YGL022W) | The level of expressed mRNA in the presence of chemical substance/The level of expressed mRNA in the absence of chemical substance (yeast gene YGR055W) | level of expressed mRNA in the presence/in the absence of chemical substance (yeast gene YGR204W)
1.3: level of expressed mRNA in the presence/in the absence of chemical substance (yeast gene YBR003W) | The level of expressed mRNA in the presence of chemical substance/The level of expressed mRNA in the absence of chemical substance (yeast gene YFL057C) | level of expressed mRNA in the presence/in the absence of chemical substance (yeast gene YGR288W) | The level of expressed mRNA in the presence of chemical substance/The level of expressed mRNA in the absence of chemical substance (yeast gene YHR137W) | The level of expressed mRNA in the presence of chemical substance/The level of expressed mRNA in the absence of chemical substance (yeast gene YIR036C)
1.9: The level of expressed mRNA in the presence of chemical substance/The level of expressed mRNA in the absence of chemical substance (yeast gene YJL031C)
0.8: The level of expressed mRNA in the presence of chemical substance/The level of expressed mRNA in the absence of chemical substance (yeast gene YAL012W) | The level of expressed mRNA in the presence of chemical substance/The level of expressed mRNA in the absence of chemical substance (yeast gene YBR029C) | The level of expressed mRNA in the presence of chemical substance/The level of expressed mRNA in the absence of chemical substance (yeast gene YCL009C) | The level of expressed mRNA in the presence of chemical substance/The level of expressed mRNA in the absence of chemical substance (yeast gene YCR048W) | The level of expressed mRNA in the presence of chemical substance/The level of expressed mRNA in the absence of chemical substance (yeast gene YDR380W) | level of expressed mRNA in the presence/in the absence of chemical substance (yeast gene YDR400W) | The level of expressed mRNA in the presence of chemical substance/The level of expressed mRNA in the absence of chemical substance (yeast gene YFL030W) | level of expressed mRNA in the presence/in the absence of chemical substance (yeast gene YGR191W) | The level of expressed mRNA in the presence of chemical substance/The level of expressed mRNA in the absence of chemical substance (yeast gene YGR256W) | The level of expressed mRNA in the presence of chemical substance/The level of expressed mRNA in the absence of chemical substance (yeast gene YIL167W) | level of expressed mRNA in the presence/in the absence of chemical substance (yeast gene YJR077C) | The level of expressed mRNA in the presence of chemical substance/The level of expressed mRNA in the absence of chemical substance (yeast gene YJR137C) | level of expressed mRNA in the presence/in the absence of chemical substance (yeast gene YJR143C)
1.4: level of expressed mRNA in the presence/in the absence of chemical substance (yeast gene YDR483W) | The level of expressed mRNA in the presence of chemical substance/The level of expressed mRNA in the absence of chemical substance (yeast gene YIL155C) | The level of expressed mRNA in the presence of chemical substance/The level of expressed mRNA in the absence of chemical substance (yeast gene YJR155W)
1.2: The level of expressed mRNA in the presence of chemical substance/The level of expressed mRNA in the absence of chemical substance (yeast gene YDR516C) | The level of expressed mRNA in the presence of chemical substance/The level of expressed mRNA in the absence of chemical substance (yeast gene YER096W) | level of expressed mRNA in the presence/in the absence of chemical substance (yeast gene YGL115W) | The level of expressed mRNA in the presence of chemical substance/The level of expressed mRNA in the absence of chemical substance (yeast gene YGL248W) | The level of expressed mRNA in the presence of chemical substance/The level of expressed mRNA in the absence of chemical substance (yeast gene YHR111W) | The level of expressed mRNA in the presence of chemical substance/The level of expressed mRNA in the absence of chemical substance (yeast gene YHR174W) | level of expressed mRNA in the presence/in the absence of chemical substance (yeast gene YHR210C) | The level of expressed mRNA in the presence of chemical substance/The level of expressed mRNA in the absence of chemical substance (yeast gene YJL219W)
2.1: level of expressed mRNA in the presence/in the absence of chemical substance (yeast gene YJL167W)
1.6: The level of expressed mRNA in the presence of chemical substance/The level of expressed mRNA in the absence of chemical substance (yeast gene YCR098C) | The level of expressed mRNA in the presence of chemical substance/The level of expressed mRNA in the absence of chemical substance (yeast gene YDR019C) | The level of expressed mRNA in the presence of chemical substance/The level of expressed mRNA in the absence of chemical substance (yeast gene YFR047C) | The level of expressed mRNA in the presence of chemical substance/The level of expressed mRNA in the absence of chemical substance (yeast gene YHR176W) | The level of expressed mRNA in the presence of chemical substance/The level of expressed mRNA in the absence of chemical substance (yeast gene YJL099W)
2.4: The level of expressed mRNA in the presence of chemical substance/The level of expressed mRNA in the absence of chemical substance (yeast gene YBR183W)
